Measured values taken from ChEMBL document CHEMBL3044615, “Synthesis and in vitro antimicrobial activity of benzo[b][1,4]thiazin-3(4H)-ones via smiles rearrangement” (2011).
≈ marks a conversion by molar mass, not a printed value. Calls of active or inactive are those of the source. The calls are words filed in the database; no cut-off is given here.

How the values were obtained:
Type in all cases: functional
Escherichia coli = assay: Antibacterial activity against Escherichia coli ATCC 25922 after 24 hr by two-fold microdilution technique; conditions: ATCC 25922, 24 h
Bacillus subtilis = assay: Antibacterial activity against Bacillus subtilis ATCC 6633 after 24 hr by two fold microdilution technique; conditions: ATCC 6633, 24 h
Micrococcus luteus = assay: Antibacterial activity against Micrococcus luteus NCTC 2665 after 24 hr by two-fold microdilution technique; conditions: NCTC 2665, 24 h
Staphylococcus aureus = assay: Antibacterial activity against Staphylococcus aureus ATCC 25923 after 24 hr by two fold microdilution technique; conditions: ATCC 25923, 24 h
Proteus vulgaris = assay: Antibacterial activity against Proteus vulgaris ATCC 6896 after 24 hr by two-fold microdilution technique; conditions: ATCC 6896, 24 h
Candida albicans = assay: Microbiostatic activity against Candida albicans ATCC 76615 after 48 hr by two-fold microdilution technique
Pseudomonas aeruginosa = assay: Antibacterial activity against Pseudomonas aeruginosa ATCC 27853 after 24 hr by two-fold microdilution technique; conditions: ATCC 27853, 24 h
Saccharomyces cerevisiae = assay: Microbiostatic activity against Saccharomyces cerevisiae ATCC 74212 after 48 hr by two fold microdilution technique

| SMILES | MIC (Escherichia coli) [µg/mL] | MIC (Bacillus subtilis) [µg/mL] | MIC (Micrococcus luteus) [µg/mL] | MIC (Staphylococcus aureus) [µg/mL] | MIC (Proteus vulgaris) [µg/mL] | MIC (Candida albicans) | MIC (Pseudomonas aeruginosa) [µg/mL] | MIC (Saccharomyces cerevisiae) | MIC (Saccharomyces cerevisiae; ATCC 74212, 48 h) [µg/mL] | MIC (Candida albicans; ATCC 76615, 48 h) [µg/mL] |
| --- | --- | --- | --- | --- | --- | --- | --- | --- | --- | --- |
| CCCCCCN1C(=O)CSc2ccc(Cl)cc21 | 32 (≈ 113 µM) | 32 (≈ 113 µM) | 16 (≈ 56.4 µM) | 32 (≈ 113 µM) | 32 (≈ 113 µM) | inactive | 64 (≈ 225 µM) | inactive |  |  |
| CN[C@@H]1[C@H](O[C@H]2[C@H](O[C@H]3[C@H](O)[C@@H](O)[C@H](N=C(N)N)[C@@H](O)[C@@H]3N=C(N)N)O[C@@H](C)[C@]2(O)C=O)O[C@@H](CO)[C@H](O)[C@H]1O [STREPTOMYCIN] | 4 (≈ 6.88 µM) | 32 (≈ 55 µM) | 8 (≈ 13.8 µM) | 2 (≈ 3.44 µM) | 4 (≈ 6.88 µM) | inactive | 2 (≈ 3.44 µM) | inactive |  |  |
| O=C1CSc2cccc(Cl)c2N1Cc1ccccc1 | 16 (≈ 55.2 µM) | 32 (≈ 110 µM) | 32 (≈ 110 µM) | 32 (≈ 110 µM) | 64 (≈ 221 µM) | inactive | 32 (≈ 110 µM) |  | 128 (≈ 442 µM) |  |
| O=C1CSc2c(Cl)cccc2N1Cc1ccccc1 | 64 (≈ 221 µM) | 64 (≈ 221 µM) | 32 (≈ 110 µM) | 64 (≈ 221 µM) | 64 (≈ 221 µM) |  | 32 (≈ 110 µM) |  | 64 (≈ 221 µM) | 128 (≈ 442 µM) |
| O=C1CSc2ccc(Cl)cc2N1Cc1ccccc1 | 32 (≈ 110 µM) | 32 (≈ 110 µM) | 16 (≈ 55.2 µM) | 16 (≈ 55.2 µM) | 32 (≈ 110 µM) |  | 32 (≈ 110 µM) |  | 64 (≈ 221 µM) | 64 (≈ 221 µM) |
| CCCCCCN1C(=O)CSc2c(Cl)cccc21 | 32 (≈ 113 µM) | 16 (≈ 56.4 µM) | 32 (≈ 113 µM) | 32 (≈ 113 µM) | 16 (≈ 56.4 µM) |  | 32 (≈ 113 µM) |  | 64 (≈ 225 µM) | 64 (≈ 225 µM) |
| O=C1CSc2cc(Cl)ccc2N1C1CCCCC1 | 32 (≈ 114 µM) | 32 (≈ 114 µM) | 16 (≈ 56.8 µM) | 16 (≈ 56.8 µM) | 32 (≈ 114 µM) |  | 32 (≈ 114 µM) |  | 128 (≈ 454 µM) | 64 (≈ 227 µM) |
| CCCCCCN1C(=O)CSc2cc(Cl)ccc21 | 32 (≈ 113 µM) | 32 (≈ 113 µM) | 64 (≈ 225 µM) | 32 (≈ 113 µM) | 64 (≈ 225 µM) |  | 64 (≈ 225 µM) |  | 256 (≈ 902 µM) | 128 (≈ 451 µM) |
| O=C1CSc2cc(Cl)ccc2N1CC1CCCO1 (stereo not given) | 32 (≈ 113 µM) | 64 (≈ 226 µM) | 16 (≈ 56.4 µM) | 32 (≈ 113 µM) | 32 (≈ 113 µM) |  | 64 (≈ 226 µM) |  | 128 (≈ 451 µM) | 128 (≈ 451 µM) |
| O=C1CSc2cccc(Cl)c2N1C1CCCCC1 | 32 (≈ 114 µM) | 32 (≈ 114 µM) | 16 (≈ 56.8 µM) | 16 (≈ 56.8 µM) | 32 (≈ 114 µM) |  | 32 (≈ 114 µM) |  | 128 (≈ 454 µM) | 64 (≈ 227 µM) |
| O=C1CSc2ccc(Cl)cc2N1C1CCCCC1 | 64 (≈ 227 µM) | 64 (≈ 227 µM) | 32 (≈ 114 µM) | 32 (≈ 114 µM) | 64 (≈ 227 µM) |  | 128 (≈ 454 µM) | inactive |  | 256 (≈ 908 µM) |
| O=C1CSc2cccc(Cl)c2N1CC1CCCO1 (stereo not given) | 32 (≈ 113 µM) | 32 (≈ 113 µM) | 32 (≈ 113 µM) | 32 (≈ 113 µM) | 32 (≈ 113 µM) |  | 64 (≈ 226 µM) |  | 128 (≈ 451 µM) | 64 (≈ 226 µM) |
| O=C1CSc2c(Cl)cccc2N1CC1CCCO1 (stereo not given) | 64 (≈ 226 µM) | 16 (≈ 56.4 µM) | 32 (≈ 113 µM) | 32 (≈ 113 µM) | 64 (≈ 226 µM) |  | 128 (≈ 451 µM) |  | 128 (≈ 451 µM) | 128 (≈ 451 µM) |
| Clc1ccccc1C(c1ccccc1)(c1ccccc1)n1ccnc1 [CLOTRIMAZOLE] | 512 (≈ 1480 µM) | 512 (≈ 1480 µM) | 512 (≈ 1480 µM) | 512 (≈ 1480 µM) | 512 (≈ 1480 µM) |  | 512 (≈ 1480 µM) |  | 4 (≈ 11.6 µM) | 2 (≈ 5.8 µM) |
| O=C1CSc2c(Cl)cccc2N1C1CCCCC1 | 32 (≈ 114 µM) | 32 (≈ 114 µM) | 32 (≈ 114 µM) | 16 (≈ 56.8 µM) | 32 (≈ 114 µM) |  | 64 (≈ 227 µM) |  | 64 (≈ 227 µM) | 128 (≈ 454 µM) |
| CC1(C)S[C@@H]2[C@H](NC(=O)[C@H](N)c3ccccc3)C(=O)N2[C@H]1C(=O)O [AMPICILLIN] | 16 (≈ 45.8 µM) | 1 (≈ 2.86 µM) | 16 (≈ 45.8 µM) | 2 (≈ 5.72 µM) | 16 (≈ 45.8 µM) | inactive | 128 (≈ 366 µM) | inactive |  |  |
| CC(C)(O/N=C(\C(=O)N[C@@H]1C(=O)N2C(C(=O)[O-])=C(C[n+]3ccccc3)CS[C@H]12)c1csc(N)n1)C(=O)O [CEFTAZIDIME] | 4 (≈ 7.32 µM) | 2 (≈ 3.66 µM) | 16 (≈ 29.3 µM) | 4 (≈ 7.32 µM) | 4 (≈ 7.32 µM) | inactive | 128 (≈ 234 µM) | inactive |  |  |
| O=C1CSc2ccc(Cl)cc2N1CC1CCCO1 (stereo not given) | 64 (≈ 226 µM) | 32 (≈ 113 µM) | 32 (≈ 113 µM) | 64 (≈ 226 µM) | 64 (≈ 226 µM) |  | 128 (≈ 451 µM) |  | 128 (≈ 451 µM) | 64 (≈ 226 µM) |
| O=C1CSc2cc(Cl)ccc2N1Cc1ccccc1 | 32 (≈ 110 µM) | 64 (≈ 221 µM) | 16 (≈ 55.2 µM) | 64 (≈ 221 µM) | 32 (≈ 110 µM) | inactive | 64 (≈ 221 µM) | inactive |  |  |
| CCCCCCN1C(=O)CSc2cccc(Cl)c21 | 32 (≈ 113 µM) | 32 (≈ 113 µM) | 32 (≈ 113 µM) | 32 (≈ 113 µM) | 32 (≈ 113 µM) | inactive | 64 (≈ 225 µM) | inactive |  |  |
